Reference: patent US9814233B2, “Composition comprising a pesticide, a surfactant and an alkoxylate of 2-propyheptylamine” (BASF SE, priority 2011, dated 2017)

Key:
[1] = system: winter wheat (cultivar Cubus); test: Greenhouse test of herbicidal activity of glyphosate spray mixtures on winter wheat; format: in vivo; conditions: after 21 days
Method: (§1) For the greenhouse tests, winter wheat (cultivar Cubus) and soybean (cultivar Oxford) were sown or potted in loamy sandy soil to a depth of 1-2 cm. When the plants had reached a growth height of 10 to 25 cm (i.e., around 10 to 21 days after sowing), the spray mixtures were applied to the plants in a spraying cabin.
(§2) A concentrated formulation comprising glyphosate isopropylammonium in solution in water comprising the surfactants stated and amine alkoxylate A from Example 1 was diluted with deionized water and applied at a water application rate of 375 l/ha (140 g or 280 g of glyphosate/ha). The temperatures in the experimental period were between 18-35° C. During this time, the experimental plants received optimum watering, with nutrients being supplied via the water used for watering.
(§3) The herbicidal activity was evaluated by awarding scores to the treated plants (four each time) in comparison to the untreated control plants. The evaluation scale ranges from 0% to 100% activity. 100% activity means the complete death at least of those parts of the plant that are above ground.

[2] = system: soybean (cultivar Oxford); test: Greenhouse test of herbicidal activity of glyphosate spray mixtures on soybean; format: in vivo; conditions: after 21 days
Method: as §1, §2, §3

[3] = 140 g/ha glyphosate, without amine alkoxylate/surfactant
[4] = 280 g/ha glyphosate, without amine alkoxylate/surfactant
[5] = 140 g/ha glyphosate, amount 300 g/ha
[6] = 280 g/ha glyphosate, amount 300 g/ha

## CC(C)N.O=C(O)CNCP(=O)(O)O [Without, glyphosate isopropylammonium]
[1]; [3]
  Winter wheat efficacy: 53%
[1]; [4]
  Winter wheat efficacy: 68%
[2]; [3]
  Soybean efficacy: 10%
[2]; [4]
  Soybean efficacy: 10%

## C10-13-alkylbenzenesulfonate, free acid [Surfactant A]
[1]; [5]
  Winter wheat efficacy: 84%
[1]; [6]
  Winter wheat efficacy: 90%
[2]; [5]
  Soybean efficacy: 64%
[2]; [6]
  Soybean efficacy: 71%
